Data published in US20190001106A1, “THERAPEUTIC DELIVERY DEVICE” (priority 2013, published 2019).

Assay: preservation of doxorubicin efficacy in the implanted construct
Format: in vivo
Conditions: in STID-Dox-PLGA85/15 construct, 3 weeks inside an animal body about 37C

- efficacy of doxorubicin after residence in the construct: efficacy is still preserved
Compound: COc1cccc2c1C(=O)c1c(O)c3c(c(O)c1C2=O)C[C@@](O)(C(=O)CO)C[C@@H]3O[C@H]1C[C@H](N)[C@H](O)[C@H](C)O1 [doxorubicin, Doxorubicin]
